Reference: patent US20180353501A1 (Arvinas, Inc., priority 2017, published 2018)

Molecular target: T1, FLAG-p38δ (Homo sapiens, UniProt O15264)
T1 construct: expressed in transfected cells; host or cells: HeLa cells, transient transfection with Lipofectamine 2000
T1 sequence (O15264 1-365): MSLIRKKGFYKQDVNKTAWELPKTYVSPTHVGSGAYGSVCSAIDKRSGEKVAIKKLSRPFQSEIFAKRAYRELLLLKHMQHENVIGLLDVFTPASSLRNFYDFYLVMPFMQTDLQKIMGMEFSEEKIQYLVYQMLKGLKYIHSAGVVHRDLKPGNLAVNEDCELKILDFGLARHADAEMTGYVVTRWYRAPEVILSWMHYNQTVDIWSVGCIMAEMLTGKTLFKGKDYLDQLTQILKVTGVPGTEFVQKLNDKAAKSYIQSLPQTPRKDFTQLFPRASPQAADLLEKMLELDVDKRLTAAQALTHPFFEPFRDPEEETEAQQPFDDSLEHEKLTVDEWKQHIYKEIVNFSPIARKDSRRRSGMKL
Experiment: Ubiquitination assay, HeLa cells co-transfected with HA-Ub and FLAG-p38δ
Assay type: cell-based
Details: 1 μM
Text: FIGS. 15A, 15B, and 15C. Differential p38δ:PROTAC:VHL ternary complex affinities result in distinct cellular ubiquitination outcomes. (A) Both exemplary compound 50 and 46 pull-down p38δ in vitro, however compound 46 maintains ternary complex at lower concentrations. As in FIG. 14A, GST-tagged VBC was used as a bait to trap recombinant p38δ in the presence of vehicle (DMSO) or the indicated concentrations of compound 50 or 46. The rightmost lane represents a 1:25 dilution of initial input protein used in each pull-down. […] Samples were assessed by western blot and CUL2 and α-tubulin serve as positive and negative GST-VBC immunoprecipitation controls, respectively. […] FLAGimmunoprecipitated lysates were separated by SDS-PAGE and assessed via western blots detecting HA (Ub). […]
HeLa cells (2×10^6) were seeded into 10 cm dishes and allowed to adhere overnight. […] Lysates were spun down at 14,000×g at 4° C. for 20 minutes and protein content was measured by Pierce BCA Protein Assay (ThermoFisher Scientific). […] Immunoprecipitated protein was eluted off of the beads by heating at 95° C. for 5 minutes and the supernatant was run on an SDS-PAGE gel and evaluated for the presence of immunoprecipitated FLAG-tagged proteins (anti-FLAG M2, Sigma #F1804), as well as ubiquitinated FLAG-tagged proteins (anti-HA-tag (6E2), CST #2367). […]

COc1cc2c(Oc3ccc(NC(=O)C4(C(=O)Nc5ccc(F)cc5)CC4)cc3F)ccnc2cc1OCCOCCOCCOc1cc(-c2scnc2C)ccc1CNC(=O)[C@@H]1C[C@@H](O)CN1C(=O)[C@H](C(C)C)N1Cc2ccccc2C1=O [compound 46]
ubiquitination of FLAG-immunoprecipitated p38δ: levels of ubiquitination of FLAG-immunoprecipitated p38δ greater than control cells

COc1cc2c(Oc3ccc(NC(=O)C4(C(=O)Nc5ccc(F)cc5)CC4)cc3F)ccnc2cc1OCCCCOCCCCOCC(=O)N[C@H](C(=O)N1C[C@H](O)C[C@H]1C(=O)NCc1ccc(-c2scnc2C)cc1)C(C)(C)C [compound 50, N-(3-fluoro-4-((7-(4-(4-(2-(((S)-1-((2S,4R)-4-hydroxy-2-((4-(4-methylthiazol-5-yl)benzyl)carbamoyl)pyrrolidin-1-yl)-3,3-dimethyl-1-oxobutan-2-yl)amino)-2-oxoethoxy)butoxy)buto-xy)-6-methoxyquinolin-4-yl)oxy)phenyl)-N-(4-fluorophenyl)cyclopropane-1,1-dicarboxa-mide]
ubiquitination of FLAG-immunoprecipitated p38δ: far less abundant
